According to US11352363B1, “Spiropyrrolidine derived antiviral agents” (Enanta Pharmaceuticals, Inc., priority 2020, dated 2022):

How the values were obtained:
[1] = target: SARS-CoV-2 3CL-protease (Severe acute respiratory syndrome coronavirus 2 (2019-nCoV) (SARS-CoV-2), UniProt P0DTD1); test: SARS-CoV-2 3C-like (3CL) protease fluorescence assay (FRET); assay type: biochemical; conditions: read-out: FRET IC50
[2] = test system: 229E human corona virus (hCoV); test: 229E live virus assay; assay type: cell-based, hCoV-229E; conditions: Human coronavirus 229E, MRC5, 144 h, read-out: 229E EC50

`CN(C(=O)c1cc2c(F)cc(F)cc2[nH]1)[C@@H](CC(C)(C)C)C(=O)N1C[C@]2(C[C@H]1C#N)C(=O)Nc1ccccc12` [Compound 88] was tested, and the IC50 [1] was < 0.1 µM.
`CN(C(=O)OCc1ccccc1)[C@@H](CC1CCC1)C(=O)N1C[C@]2(C[C@H]1C#N)C(=O)Nc1ccccc12` [Compound 89] was tested, and the IC50 [1] was < 0.1 µM.
`CCN(C(=O)OCc1ccccc1)[C@@H](CC(C)C)C(=O)N1C[C@]2(C[C@H]1C#N)C(=O)Nc1ccccc12` [Compound 90] was tested, and the IC50 [1] was < 0.1 µM.
`CN(C(=O)c1cc2c(F)cc(F)cc2[nH]1)[C@@H](CC1CCC1)C(=O)N1C[C@]2(C[C@H]1C#N)C(=O)Nc1ccccc12` [Compound 91] was tested, and the IC50 [1] was < 0.1 µM.
In the case of `COc1cccc2[nH]c(C(=O)N(C)[C@@H](CC3CCC3)C(=O)N3C[C@]4(C[C@H]3C#N)C(=O)Nc3ccccc34)cc12` [Compound 92], the IC50 [1] is reported as < 0.1 µM.
With `CN(C(=O)c1cc2c(F)cccc2[nH]1)[C@@H](CC1CCC1)C(=O)N1C[C@]2(C[C@H]1C#N)C(=O)Nc1ccccc12` [Compound 93] the IC50 [1] was < 0.1 µM.
`CN(C(=O)c1cc2c(OC3CC3)cccc2[nH]1)[C@@H](CC1CCC1)C(=O)N1C[C@]2(C[C@H]1C#N)C(=O)Nc1ccccc12` [Compound 94] was tested, and the IC50 [1] was < 0.1 µM.
With `CCN(C(=O)c1cc2c(F)cccc2[nH]1)[C@@H](CC(C)C)C(=O)N1C[C@]2(C[C@H]1C#N)C(=O)Nc1ccccc12` [Compound 95] the IC50 [1] was < 0.1 µM.
`C=CCN(C(=O)OCc1ccccc1)[C@@H](CC(C)C)C(=O)N1C[C@]2(C[C@H]1C#N)C(=O)Nc1ccccc12` [Compound 96] was tested, and the IC50 [1] was < 0.1 µM.
With `CCCN(C(=O)OCc1ccccc1)[C@@H](CC(C)C)C(=O)N1C[C@]2(C[C@H]1C#N)C(=O)Nc1ccccc12` [Compound 97] the IC50 [1] was < 0.1 µM.
With `CCCN(C(=O)c1cc2c(F)cccc2[nH]1)[C@@H](CC(C)C)C(=O)N1C[C@]2(C[C@H]1C#N)C(=O)Nc1ccccc12` [Compound 98] the IC50 [1] was < 0.1 µM.
In the case of `CCCN(C(=O)c1cc2c(F)cc(F)cc2[nH]1)[C@@H](CC(C)C)C(=O)N1C[C@]2(C[C@H]1C#N)C(=O)Nc1ccccc12` [Compound 99], the IC50 [1] is reported as < 0.1 µM.
With `CC(C)CC[C@@H](C(=O)N1C[C@]2(C[C@H]1C#N)C(=O)Nc1ccccc12)N(C)C(=O)OCc1ccccc1` [Compound 100] the IC50 [1] was < 0.1 µM.
`CN(C(=O)OCc1ccccc1)[C@@H](CC(C)(C)F)C(=O)N1C[C@]2(C[C@H]1C#N)C(=O)Nc1ccccc12` [Compound 101] was tested, and the IC50 [1] was < 0.1 µM.
In the case of `CN(C(=O)OCc1ccccc1)[C@@H](CC1CC1)C(=O)N1C[C@]2(C[C@H]1C#N)C(=O)Nc1ccccc12` [Compound 102], the IC50 [1] is reported as < 0.1 µM.
`CC(C)CC[C@@H](C(=O)N1C[C@]2(C[C@H]1C#N)C(=O)Nc1ccccc12)N(C)C(=O)c1cc2c(F)cc(F)cc2[nH]1` [Compound 104] was tested, and the IC50 [1] was < 0.1 µM.
With `COc1cccc2[nH]c(C(=O)N(C)[C@@H](CCC(C)C)C(=O)N3C[C@]4(C[C@H]3C#N)C(=O)Nc3ccccc34)cc12` [Compound 105] the IC50 [1] was < 0.1 µM.
In the case of `COc1cccc2[nH]c(C(=O)N(C)[C@@H](CC3CCCC3)C(=O)N3C[C@]4(C[C@H]3C#N)C(=O)Nc3ccccc34)cc12` [Compound 106], the IC50 [1] is reported as < 0.1 µM.
`CN(C(=O)c1cc2c(F)cc(F)cc2[nH]1)[C@@H](CC1CCCC1)C(=O)N1C[C@]2(C[C@H]1C#N)C(=O)Nc1ccccc12` [Compound 107] was tested, and the IC50 [1] was < 0.1 µM.
In the case of `CN(C(=O)c1cc2c(OC(F)(F)F)cccc2[nH]1)[C@@H](CC1CCCC1)C(=O)N1C[C@]2(C[C@H]1C#N)C(=O)Nc1ccccc12` [Compound 108], the IC50 [1] is reported as < 0.1 µM.
In the case of `CN(C(=O)c1cc2c(F)cc(F)c(F)c2[nH]1)[C@@H](CC1CCCC1)C(=O)N1C[C@]2(C[C@H]1C#N)C(=O)Nc1ccccc12` [Compound 109], the IC50 [1] is reported as < 0.1 µM.
`CN(C(=O)c1cc2c(F)cccc2[nH]1)[C@@H](CC1CCCCC1)C(=O)N1C[C@]2(C[C@H]1C#N)C(=O)Nc1ccccc12` [Compound 110] was tested, and the IC50 [1] was < 0.1 µM.
For `CN(C(=O)c1cc2c(F)cc(F)cc2[nH]1)[C@@H](CC1CCCCC1)C(=O)N1C[C@]2(C[C@H]1C#N)C(=O)Nc1ccccc12` [Compound 111], the IC50 [1] was < 0.1 µM.
With `CN(C(=O)c1cc2c(F)c(F)ccc2[nH]1)[C@@H](CC1CCCCC1)C(=O)N1C[C@]2(C[C@H]1C#N)C(=O)Nc1ccccc12` [Compound 112] the IC50 [1] was < 0.1 µM.
In the case of `COc1cccc2[nH]c(C(=O)N(C)[C@@H](CC3CCCCC3)C(=O)N3C[C@]4(C[C@H]3C#N)C(=O)Nc3ccccc34)cc12` [Compound 113], the IC50 [1] is reported as < 0.1 µM.
For `COc1cccc2[nH]c(C(=O)N(C)[C@@H](CC3CC3)C(=O)N3C[C@]4(C[C@H]3C#N)C(=O)Nc3ccccc34)cc12` [Compound 114], the IC50 [1] was < 0.1 µM.
With `CN(C(=O)c1cc2c(F)cc(F)cc2[nH]1)[C@@H](CC1CC1)C(=O)N1C[C@]2(C[C@H]1C#N)C(=O)Nc1ccccc12` [Compound 115] the IC50 [1] was < 0.1 µM.
In the case of `CN(C(=O)c1cc2c(F)cccc2[nH]1)[C@@H](CC1CC1)C(=O)N1C[C@]2(C[C@H]1C#N)C(=O)Nc1ccccc12` [Compound 116], the IC50 [1] is reported as < 0.1 µM.
With `COc1cccc2[nH]c(C(=O)N[C@@H](CC(C)C)C(=O)N3C[C@]4(C[C@H]3C=O)C(=O)N(C)c3ccccc34)cc12` [Compound 119] the IC50 [1] was < 0.1 µM.
Work on `COc1cccc2[nH]c(C(=O)N[C@@H](CC(C)C)C(=O)N3C[C@]4(C[C@H]3C#N)C(=O)N(C)c3ccccc34)cc12` [Compound 120] yielded an IC50 [1] of 0.1 to 1 µM.
With `COc1cccc2[nH]c(C(=O)N(C)[C@@H](CC(C)C)C(=O)N3C[C@]4(C[C@H]3C#N)C(=O)N(C)c3ccccc34)cc12` [Compound 121] the IC50 [1] was < 0.1 µM.
`CC(C)C[C@H](NC(=O)NCc1ccccc1)C(=O)N1C[C@]2(C[C@H]1C#N)C(=O)Nc1ccccc12` [Compound 122] was tested, and the IC50 [1] was < 0.1 µM.
In the case of `CN(C(=O)c1cnn(-c2ccccc2C(F)(F)F)c1)[C@@H](CC1CC1)C(=O)N1C[C@]2(C[C@H]1C#N)C(=O)Nc1ccccc12` [Compound 124], the IC50 [1] is reported as < 0.1 µM.
`[2H]C([2H])([2H])N(C(=O)c1cnn(C(C)(C)C)c1)[C@@H](CC1CC1)C(=O)N1C[C@]2(C[C@H]1C#N)C(=O)Nc1ccccc12` [Compound 125] was tested, and the EC50 [2] was < 0.1 µM.
